Results taken from publication PMC11941218, “Juglone-Bearing Thiopyrano[2,3-d]thiazoles Induce Apoptosis in Colorectal Adenocarcinoma Cells” (Cells, 2025).

Key:
[1] = system: HT-29 colorectal adenocarcinoma cells; test: Apoptosis assay, FITC-Annexin V/propidium iodide flow cytometry; type: cell-based, human; settings: HT-29, 24 h; Les-6547 5 μM, Les-6557 10 μM
Description: The pro-apoptotic effects of the tested compounds were assessed using the FITC Annexin V Apoptosis Detection Kit II in conjunction with a BD FACSCanto II flow cytometer (BD Biosciences, San Jose, CA, USA). The experimental procedure adhered to the manufacturer’s instructions and previously established protocols.
Initially, HT-29 cells were seeded in 6-well plates at a density of 300,000 cells per well in 2 mL of culture medium and incubated overnight to allow adherence. Subsequently, the cells were treated with Les-6547 (5 µM) and Les-6557 (10 µM) for 24 h. After exposure to the compounds, the cells were rinsed twice with cold PBS and suspended in the binding buffer provided in the kit. FITC Annexin V and propidium iodide (PI) were added to the 100 µL cell suspension, followed by 15-min incubation at room temperature, shielded from light.
After the incubation, 300 µL of binding buffer was added to each sample, and analysis was performed using the flow cytometer, with 10,000 events recorded per sample. Data were processed using FACSDiva software (version 6.1.3, BD Biosciences, San Jose, CA, USA). Calibration of the instrument was ensured using a BD Cytometer Setup and Tracking Beads (BD Biosciences, San Diego, CA, USA).

[2] = system: DLD-1 colorectal adenocarcinoma cells; test: [^3H]-thymidine incorporation assay (DNA biosynthesis); type: cell-based; settings: Homo sapiens; DLD-1, 24 h, M ± SD, n = 3
Description: (§1) The anti-proliferative potential of Les-6547 and Les-6557 was analyzed using a clonogenic assay and incorporation of radioactive [^3H]-thymidine into the DNA of colorectal adenocarcinoma HT-29 and DLD-1 cell lines after 24 h of incubation with various concentrations of the tested agents.
(§2) Next, we examined the effects of the tested compounds on the proliferative activity of human colorectal adenocarcinoma cells by assessing their ability to influence DNA biosynthesis using the thymidine incorporation assay (Figure 6, Table 8). Les-6547 decreased DNA biosynthesis in DLD-1 cells to 50% at a concentration of 2.19 ± 0.39 µM.

[3] = system: HT-29 colorectal adenocarcinoma cells; test: as above; type: cell-based; settings: Homo sapiens; HT-29, 24 h, M ± SD, n = 3
Description: as §1, §2

[4] = system: HT-29 colorectal adenocarcinoma cells; test: Intracellular total ROS activity assay (flow cytometry); type: cell-based, human; settings: HT-29, 24 h; control 3.8%
Description: Total reactive oxygen species (ROS) activity was assessed using an Intracellular Total ROS Activity Assay Kit. Following 24 h incubation with studied derivatives, HT-29 cells were prepared for analysis with the flow cytometer according to the protocol detailed in the literature. The cells were washed twice with cold PBS, followed by the addition of the assay buffer provided in the kit. The cells, at a concentration of 1 × 10⁶ cells/mL, were then exposed to 10 µL of Total ROS Green reagent and incubated for one hour at 37 °C in a CO2 incubator. After the incubation period, the cells were rinsed with the assay buffer. Finally, the cells were resuspended in 500 µL of assay buffer and analyzed using a BD FACSCanto II flow cytometer in conjunction with FACSDiva 6.1.3 software (both BD Biosciences Systems, San Jose, CA, USA). The BD Cytometer Setup and Tracking Beads (BD Biosciences, San Diego, CA, USA) were used for calibration.

caspase 10 = test: Caspase 10 activity assay (FAM-FLICA, flow cytometry) in HT-29 cells; type: cell-based, human; settings: HT-29, 24 h; Les-6547 5 μM, Les-6557 10 μM
Description: Caspase activity for initiator caspases (8, 9, and 10) and executioner caspases (3/7) was evaluated using a FAM-FLICA® Caspase Assay kit (ImmunoChemistry Technologies, Bloomington, MN, USA) according to the manufacturer’s instructions, as described in previous studies. HT-29 cells were exposed to Les-6547 (5 µM) and Les-6557 (10 µM) for 24 h. Following this, the cells were harvested, washed twice with cold PBS, and resuspended in Apoptosis Wash Buffer (ImmunoChemistry Technologies, Bloomington, MN, USA) at a final concentration of 5 × 10^5 cells/mL.
Subsequently, 290 µL of the cell suspension was transferred into individual tubes, to which 10 µL of freshly prepared FLICA solution (1:5 dilution in PBS) was added. The mixture was gently pipetted and incubated for 1 h at 37 °C in the dark. After the incubation, the cells were washed twice with 2 mL of Apoptosis Wash Buffer, centrifuged, and resuspended in 300 µL of the same buffer. The prepared samples were immediately analyzed using a BD FACSCanto II flow cytometer (10,000 events). Data were processed using FACSDiva 6.1.3 software (BD Biosciences Systems, San Jose, CA, USA). Flow cytometer calibration was conducted using a BD Cytometer Setup and Tracking Beads (BD Biosciences, San Diego, CA, USA).

Row | IC50 [2] | IC50 [3] | SMILES | apoptotic cells (sum of early and late apoptotic cells) [1] | increase of the number of ROS-positive cells compared with the control cells [4] | Cells with active caspase 10 (caspase 10)
1 | 2.19 ± 0.39 µM | 2.21 ± 0.39 µM | O=C1C2=C(C(=O)c3c(O)cccc31)C(c1cc(Cl)ccc1O)c1sc(=O)[nH]c1S2 (stereo not drawn) [Les-6547] | 36.2% | approximately 10 fold | –
2 | 4.65 ± 0.02 µM | 2.91 ± 0.38 µM | O=C1C2=C(C(=O)c3c(O)cccc31)C(c1ccc(Cl)cc1)c1sc(=O)[nH]c1S2 (stereo not drawn) [Les-6557] | 31.9% | approximately 10 fold | 40.9%
